Measured values published in ChEMBL document CHEMBL1201862, “PubChem BioAssay data set” (2004).
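Exposure lasted 48 hours, with cells grown in 96-well plates and compounds tested at five concentrations. GI50 = concentration required for 50% inhibition of growth.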 Calls of active or inactive are those of the source. Rule as the data show it: active = GI50 up to about 1.1 µM and inactive = higher.

Legend:
Assay in all cases: NCI tumour cell line growth inhibition, 48 h
HCT-15 = test system: HCT-15
IGROV-1 = test system: IGROV-1
UACC-62 = test system: UACC-62
HT-29 = test system: HT-29
M14 = test system: M14
COLO 205 = test system: COLO 205
SN12C = test system: SN12C
OVCAR-8 = test system: OVCAR-8
MOLT-4 = test system: MOLT-4
MCF7 = test system: MCF7
SF-268 = test system: SF-268
HOP-92 = test system: HOP-92
UACC-257 = test system: UACC-257
MDA-MB-231 = test system: MDA-MB-231
KM12 = test system: KM12
DU-145 = test system: DU-145
SF-295 = test system: SF-295
NCI-H522 = test system: NCI-H522
ACHN = test system: ACHN
TK-10 = test system: TK-10
NCI-H23 = test system: NCI-H23
MDA-MB-435 = test system: MDA-MB-435
SNB-19 = test system: SNB-19
RPMI-8226 = test system: RPMI-8226
BT-549 = test system: BT-549
SF-539 = test system: SF-539
NCI-H226 = test system: NCI-H226
Hs-578T = test system: Hs-578T
K562 = test system: K562
MDA-N = test system: MDA-N
SW-620 = test system: SW-620
NCI/ADR-RES = test system: NCI/ADR-RES
SK-OV-3 = test system: SK-OV-3
OVCAR-5 = test system: OVCAR-5
SK-MEL-2 = test system: SK-MEL-2
SK-MEL-5 = test system: SK-MEL-5
CAKI-1 = test system: CAKI-1
EKVX = test system: EKVX
T47D = test system: T47D
UO-31 = test system: UO-31
Malme-3M = test system: Malme-3M
RXF 393 = test system: RXF 393
HCT-116 = test system: HCT-116
786-0 = test system: 786-0
HOP-62 = test system: HOP-62
HL-60 = test system: HL-60
OVCAR-3 = test system: OVCAR-3
LOX IMVI = test system: LOX IMVI
SNB-75 = test system: SNB-75
U-251 = test system: U-251
CCRF-CEM = test system: CCRF-CEM
OVCAR-4 = test system: OVCAR-4
A549 = test system: A549
A498 = test system: A498
SK-MEL-28 = test system: SK-MEL-28
PC-3 = test system: PC-3
SR = test system: SR
NCI-H460 = test system: NCI-H460
HCC 2998 = test system: HCC 2998

C=C(C)[C@H]1C2=CC(C(=O)OC)=C(C[C@H](C(=C)C)[C@@H](O)[C@@H](O)C3=C[C@H]1OC3=O)O2
GI50 (HCT-15): 59.8 µM | GI50 (IGROV-1): 80.2 µM (inactive) | GI50 (UACC-62): > 100 µM (inactive) | GI50 (HT-29): > 100 µM (inactive) | GI50 (M14): > 100 µM (inactive) | GI50 (COLO 205): > 100 µM (inactive) | GI50 (SN12C): > 100 µM (inactive) | GI50 (OVCAR-8): > 100 µM (inactive) | GI50 (MOLT-4): 97.5 µM (inactive) | GI50 (MCF7): > 100 µM (inactive) | GI50 (SF-268): > 100 µM (inactive) | GI50 (HOP-92): 65.5 µM (inactive) | GI50 (UACC-257): > 100 µM (inactive) | GI50 (MDA-MB-231): > 100 µM (inactive) | GI50 (KM12): > 100 µM (inactive) | GI50 (DU-145): > 100 µM (inactive) | GI50 (SF-295): > 100 µM (inactive) | GI50 (NCI-H522): > 100 µM (inactive) | GI50 (ACHN): > 100 µM (inactive) | GI50 (TK-10): > 100 µM (inactive) | GI50 (NCI-H23): > 100 µM (inactive) | GI50 (MDA-MB-435): > 100 µM (inactive) | GI50 (SNB-19): > 100 µM (inactive) | GI50 (RPMI-8226): > 100 µM (inactive) | GI50 (BT-549): > 100 µM (inactive) | GI50 (SF-539): > 100 µM (inactive) | GI50 (NCI-H226): > 100 µM (inactive) | GI50 (Hs-578T): > 100 µM (inactive) | GI50 (K562): > 100 µM (inactive) | GI50 (MDA-N): > 100 µM (inactive) | GI50 (SW-620): > 100 µM (inactive) | GI50 (NCI/ADR-RES): > 100 µM (inactive) | GI50 (SK-OV-3): > 100 µM (inactive) | GI50 (OVCAR-5): > 100 µM (inactive) | GI50 (SK-MEL-2): > 100 µM (inactive) | GI50 (SK-MEL-5): > 100 µM (inactive) | GI50 (CAKI-1): > 100 µM (inactive) | GI50 (EKVX): > 100 µM (inactive) | GI50 (T47D): > 100 µM (inactive) | GI50 (UO-31): 18 µM (inactive) | GI50 (Malme-3M): > 100 µM (inactive) | GI50 (RXF 393): > 100 µM (inactive) | GI50 (HCT-116): > 100 µM (inactive) | GI50 (786-0): > 100 µM (inactive) | GI50 (HOP-62): > 100 µM (inactive) | GI50 (HL-60): 61 µM (inactive) | GI50 (OVCAR-3): > 100 µM (inactive) | GI50 (LOX IMVI): > 100 µM (inactive) | GI50 (SNB-75): 37.7 µM (inactive) | GI50 (U-251): > 100 µM (inactive) | GI50 (CCRF-CEM): 87.9 µM (inactive) | GI50 (OVCAR-4): > 100 µM (inactive) | GI50 (A549): > 100 µM (inactive) | GI50 (A498): > 100 µM (inactive)

O=[N+]([O-])c1ccc(-c2nc3ccccc3o2)cc1
GI50 (HCT-15): > 100 µM | GI50 (IGROV-1): > 100 µM (inactive) | GI50 (UACC-62): > 100 µM (inactive) | GI50 (M14): > 100 µM (inactive) | GI50 (COLO 205): > 100 µM (inactive) | GI50 (SN12C): > 100 µM (inactive) | GI50 (OVCAR-8): > 100 µM (inactive) | GI50 (SK-MEL-28): > 100 µM (inactive) | GI50 (MOLT-4): > 100 µM (inactive) | GI50 (MCF7): > 100 µM (inactive) | GI50 (SF-268): > 100 µM (inactive) | GI50 (HOP-92): > 100 µM (inactive) | GI50 (UACC-257): > 100 µM (inactive) | GI50 (KM12): > 100 µM (inactive) | GI50 (DU-145): > 100 µM (inactive) | GI50 (PC-3): > 100 µM (inactive) | GI50 (SF-295): > 100 µM (inactive) | GI50 (NCI-H522): > 100 µM (inactive) | GI50 (ACHN): > 100 µM (inactive) | GI50 (TK-10): > 100 µM (inactive) | GI50 (SR): > 100 µM (inactive) | GI50 (NCI-H23): > 100 µM (inactive) | GI50 (MDA-MB-435): > 100 µM (inactive) | GI50 (SNB-19): > 100 µM (inactive) | GI50 (RPMI-8226): > 100 µM (inactive) | GI50 (NCI-H460): > 100 µM (inactive) | GI50 (BT-549): > 100 µM (inactive) | GI50 (SF-539): > 100 µM (inactive) | GI50 (NCI-H226): > 100 µM (inactive) | GI50 (Hs-578T): > 100 µM (inactive) | GI50 (K562): > 100 µM (inactive) | GI50 (MDA-N): > 100 µM (inactive) | GI50 (SW-620): > 100 µM (inactive) | GI50 (NCI/ADR-RES): > 100 µM (inactive) | GI50 (HCC 2998): > 100 µM (inactive) | GI50 (SK-OV-3): > 100 µM (inactive) | GI50 (OVCAR-5): > 100 µM (inactive) | GI50 (SK-MEL-2): > 100 µM (inactive) | GI50 (SK-MEL-5): > 100 µM (inactive) | GI50 (CAKI-1): > 100 µM (inactive) | GI50 (EKVX): > 100 µM (inactive) | GI50 (T47D): > 100 µM (inactive) | GI50 (UO-31): > 100 µM (inactive) | GI50 (Malme-3M): > 100 µM (inactive) | GI50 (RXF 393): > 100 µM (inactive) | GI50 (HCT-116): > 100 µM (inactive) | GI50 (786-0): > 100 µM (inactive) | GI50 (HOP-62): 69 µM (inactive) | GI50 (OVCAR-3): > 100 µM (inactive) | GI50 (LOX IMVI): > 100 µM (inactive) | GI50 (SNB-75): > 100 µM (inactive) | GI50 (U-251): > 100 µM (inactive) | GI50 (CCRF-CEM): 40.4 µM (inactive) | GI50 (OVCAR-4): > 100 µM (inactive) | GI50 (A549): > 100 µM (inactive) | GI50 (A498): > 100 µM (inactive)
